Source: patent publication US20260324651A1 (priority 2022, published 2026)

Legend:
B. cinerea = assay: Inhibitory effect of pure lipopeptides and their combinations on fungal growth
Description: (§1) To further explore the potential synergistic effect between bioactive metabolites assays with single families of bioactive compounds and their combinations were performed.
(§2) Increasing concentrations of pure stocks of surfactin (Sigma S3523, FIG. 4A), fengycin (Sigma SMB00292, FIG. 4B) or iturin (Sigma 11774, FIG. 4C) were added to 48-well microtiter plates containing PDB medium and a fixed fungal spore concentration. Inhibitory effect over two different phytopathogenic species was assayed, F. culmorum (FIG. 4, left) and B. cinerea (FIG. 4, right). Plates were incubated at 25° C. without shaking for 60 hours (in dark conditions) and fungal growth was measured by spectrophotometry at 600 nm.
(§3) Fungal growth inhibition of increasing concentrations of single compounds was compared with compound combinations, where a fixed concentration of one of them was assayed in combination with increasing concentrations of the second metabolite.

F. culmorum = assay: as above
Description: as §1, §2, §3

[1] = in the presence of surfactin, vs fengycin alone
[2] = single lipopeptide, 25° C., 60 hours
[3] = with surfactin at 100-200 μg/ml

fengycin
increase of bioactivity of fengycin in the presence of surfactin (B. cinerea; [1]): up to 6 fold | inhibition of fungal growth (B. cinerea; [2]): potent inhibition of fungal growth | effective concentration of fengycin required to inhibit growth (B. cinerea; [3]): 12.5 µg/mL | increase of bioactivity of fengycin in the presence of surfactin (F. culmorum; [1]): up to 6 fold | inhibition of fungal growth (F. culmorum; [2]): potent inhibition of fungal growth | effective concentration of fengycin required to inhibit growth (F. culmorum; [3]): 12.5 µg/mL

surfactin
inhibitory effect on growth at high concentrations (B. cinerea; 200-400 μg/ml surfactin alone): very modest and barely decreased the growth | inhibition of fungal growth (B. cinerea; [2]): only compromised pathogen growth very weakly | inhibitory effect on growth at high concentrations (F. culmorum; 200-400 μg/ml surfactin alone): very modest and barely decreased the growth | inhibition of fungal growth (F. culmorum; [2]): only compromised pathogen growth very weakly

iturin
effective concentration for strong growth inhibition (B. cinerea; [2]): 9 µg/mL | inhibition of fungal growth (B. cinerea; [2]): potent inhibition of fungal growth | effective concentration for strong growth inhibition (F. culmorum; [2]): 9 µg/mL | inhibition of fungal growth (F. culmorum; [2]): potent inhibition of fungal growth
